# Test results reported in patent publication US20150017638A1, “METHODS FOR ASSESSING RISK FOR CANCER USING BIOMARKERS” (THE TRUSTEES OF THE UNIVERSITY OF PENNSYLVANIA, priority 2012, published 2015).
# Columns and labels:
# [1] = system: Primary cell lines derived from PanIN mice (sorted YFP+ cells); experiment: In vitro exposure of PanIN-derived primary cell lines to cerulein, dexamethasone, TGF-b; assay type: cell-based, mouse; settings: 48 hr; for cell morphology: dexamethasone 1 mM, vs DMSO vehicle
# Method: Cells destined for transcriptional analysis were sorted into either RLT buffer (QIAGEN) or Trizol LS Reagent (Invitrogen). RNA was extracted from samples >1,000 cells using the RNEasy kit (QIAGEN). RNA from samples with fewer cells, including all sorted blood cell samples, was isolated using the PicoPure Extraction kit as directed (Arcturus). qPCR was performed as previously described (Zong et al., 2009), and primary sequences used are listed in Table 1, below. Relative expression was determined after adjusting for GAPDH. Genomic DNA was extracted from sorted CPCs pooled from three tumor-bearing mice using phenol or DNeasy kit (QIAGEN).
# Primary cell lines were derived from PanIN mice after sorting pancreas single-cell suspensions for YFP^+ cells. Sorted YFP^+ cells were then placed in six-well plates in pancreatic ductal cell media (Schreiber et al., 2004) and passaged at 80% confluence, Cells were transferred to multiple 6-well plates (250,000 cells per well) in pancreatic ductal cell media containing DMSO vehicle, cerulein (100 nM, Sigma), dexamethasone (Dex, 1 mM, Sigma), TGF-b (5 ng/ml, Peprotech), or Dex (1 mM) and TGF-b (5 ng/ml). Morphology was photodocumented at 6 hr, 24 hr, and 48 hr after treatment using an inverted microscope. After 48 hr of exposure, cells were counted and RNA isolated, cDNA synthesized, and qPCR performed as described above.
# murine PanIN disease = settings: Guerra et al., 2011; cited from earlier work
# [2] = system: CY, KCY, PanIN PKCY, and PDAC PKCY mice; experiment: Experimental acute pancreatitis elicited with cerulein in lineage-labeled mice; assay type: in vivo, mouse
# Source text: The behavior of mutant strains bearing various allele combinations of Pdx1-Cre KrasG12D, p16/p19fl, and p53fl has been described previously (Aguirre et al., 2003; Bardeesy et al., 2006; Hingorani et al., 2003; and U.S. patent application Ser. No. 11/503,499, the contents of which are expressly incorporated herein by reference). To perform lineage tracing, a RosaYFP reporter allele was introduced into these mutant backgrounds to generate a panel of compound mutant strains: Pdx1-Cre; RosaYFP (“CY”), Pdx 1-Cre; KrasG12D; RosaYFP (“KCY”), Pdx1-Cre; KrasG12D; p16/p19fl/+; RosaYFP (“IKCY”), and Pdx1-Cre; KrasG12D; p53fl/+; RosaYFP (“PKCY”). All experiments involving the KCY model employed mice between 8 and 10 weeks of age. For studies involving mice harboring only PaniN lesions by histologic analysis (“PanIN” mice), PKCY animals were sacrificed at 8-10 weeks of age based on prior observations regarding tumor progression (Bardeesy et al., 2006); no PKCY mice (out of 18 examined) had evidence of carcinoma at this time point. […] More than 90% of IKCY and PKCY mice were 34-38 weeks of age or 16-20 weeks of age, respectively, at the time of sacrifice.
# Experimental pancreatitis was elicited with cerulein as described (Siveke et al., 2008), and specimens were obtained after 3 days of treatment. Three to four CY, KCY, PanIN PKCY, and PDAC PKCY were used for cerulein and vehicle (PBS) treated cohorts. Orthotopic transplantations were performed on NOD/SCID mice by injecting 1×10^5 sorted pancreas cells as previously described (Mohammad et al., 1998). PKCY PanIN mice aged 10 weeks were treated with seven daily injections of dexamethasone or vehicle (DMSO) as described (Stairs et al., 2011) and analyzed 24 hours later.
# For experiments involving flow cytometry and sorting of pancreatic cells, at least 25% of the tissue was saved for histologic analysis and was processed and stained. To create a single cell suspension, pancreatic tissue was rinsed vigorously in cold DMEM/F12 three times before mincing with scissors (approximately 100 chops). The minced pieces were then incubated in preheated collagenase with protease inhibitors (2 mg/ml; Sigma) for 20 min at 37° C. Vigorous vortexing was performed every 5 min during this incubation. The dissolved pieces were then poured over a […] cell strainer. The flow through was resuspended in cold 2% FCS/DMEM/F12, centrifuged, washed once, and kept on ice in the dark. Enriched blood samples or dissociated pancreatic specimens were stained for various markers prior to flow cytometric analysis (FACS Calibur, BD, or Accuri C6, Accuri Cytometers) or flow sorting (FACSVantage with FACSDiva option, BD). For analysis and sorting based on endogenous YFP and surface markers, primary antibodies (1:100) and secondary antibodies (1:50) were incubated with cells in 10% FCS/DMEM/F12 for 20 min at 4° C. Primary PanIN cell lines from IKCY and PKCY mice were used as positive controls. Isotype controls were also run. For intracellular staining of CPCs and pancreas cells, cells were washed with 10% FCS/DMEM/F12 before washing in freshly prepared 13fixation/permeabilization solution (Fix/Perm; eBioscience) followed by incubation in Fix/Perm for 30 min in the dark at 4° C. Cells were washed twice with 13 permeabilization buffer (Perm; eBioscience) before incubation in Block-P solution (10% FCS in freshly prepared Perm). After 15 min at 4° C., primary antibodies were added and incubated for an additional 20 min on ice. […]
# [3] = cerulein 100 nM, Dex 1 mM, triplicate
compound,measurement,setting,value
C[C@@H]1C[C@H]2[C@@H]3CCC4=CC(=O)C=C[C@]4(C)[C@@]3(F)[C@@H](O)C[C@]2(C)[C@@]1(O)C(=O)CO [dexamethasone],expression of a panel of epithelial or mesenchymal markers (qPCR),[1]; [3],no effect
CC1=C(CC(=O)O)c2cc(F)ccc2/C1=C\c1ccc([S+](C)[O-])cc1 (stereo not shown) [sulindac],PanIN disease,murine PanIN disease,regression of murine PanIN disease
TGF-b,expression of epithelial markers (qPCR),"[1]; TGF-b 5 ng/ml, triplicate",significant downregulation of epithelial markers
same,expression of mesenchymal markers Zeb1 and N-cad (qPCR),"[1]; TGF-b 5 ng/ml, triplicate",increase in the expression of the mesenchymal markers Zeb1 and N-cad
same,cell morphology,"[1]; cerulein 100 nM, TGF-b 5 ng/ml",acquisition of a fibroblast-like morphology
cerulein,circulating pancreatic cell (CPC) number,"[2]; 8-week-old KCY mice, 3 days of cerulein vs vehicle",marked elevation in circulating cells
same,pancreas histology (ADMI and PanIN formation),"[2]; KCY mice, 8-week-old, 3 days of cerulein treatment vs vehicle",formation of ADMIs and accelerated PanIN formation
same,frequency of EMT in pancreas,"[2]; PDAC mice, cerulein compared to vehicle",little change in the frequency of EMT
same,circulating pancreatic cell (CPC) number,"[2]; across all groups (CY, KCY, PKCY PanIN, PDAC), p=0.014 by two-way ANOVA",significant increase in CPC number
same,EMT (YFP+Zeb1+ cells) in pancreas,[2]; control (CY) and KCY mice,emergence of YFP^+Zeb1^+ cells
same,expression of a panel of epithelial or mesenchymal markers (qPCR),[1]; [3],no effect
same,proliferation,[1]; [3],no effect on proliferation
same,cell morphology,"[1]; cerulein 100 nM, TGF-b 5 ng/ml",identical morphology as vehicle-treated cells
